The text below walks through data of PMC4628998 (BioMed Research International, 2015).

For the assay, the target named is T1, CK2α (Zea mays) (Zea mays, UniProt P28523).
T1 construct: gene ACK2; catalytic subunit CK2α alone
The experiment in a line: radiometric peptide phosphorylation assay, residual activity at […]. Type of assay: biochemical.

T1 sequence (P28523 whole entry): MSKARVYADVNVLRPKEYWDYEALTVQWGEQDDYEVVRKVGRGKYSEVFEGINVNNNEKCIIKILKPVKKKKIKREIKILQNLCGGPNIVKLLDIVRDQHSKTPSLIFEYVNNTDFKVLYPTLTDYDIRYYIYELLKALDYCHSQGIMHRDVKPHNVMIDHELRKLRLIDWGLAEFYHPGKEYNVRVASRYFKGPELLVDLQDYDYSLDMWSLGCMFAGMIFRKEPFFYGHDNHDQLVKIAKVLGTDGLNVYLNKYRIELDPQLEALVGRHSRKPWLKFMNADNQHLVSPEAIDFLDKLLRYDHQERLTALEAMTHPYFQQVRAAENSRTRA

Regarding `O=C1c2ccc(O)c(O)c2C(=O)c2c(O)ccc(O)c21` [quinalizarin, 1,2,5,8-tetrahydroxyanthraquinone], the activity at 1 µM came to 33%.
